# Literature values as cited in patent publication US20110226621A1, “TARGET RECOGNITION MOLECULE AND A METHOD FOR IMMOBILIZING THE SAME” (Sharp Kabushiki Kaisha, priority 2009, published 2011).
# Where two headings read alike, the source gives them in different places.
# Conditions: individual amino acid
# [1] = Table 1 repeated in Example 1-1
Structure (SMILES),isoelectric point (Table 1 in summary),isoelectric point [1]
N[C@@H](Cc1c[nH]c2ccccc12)C(=O)O [tryptophan],5.89,5.89
CC[C@H](C)[C@H](N)C(=O)O [isoleucine],6.05,6.05
NC(=O)C[C@H](N)C(=O)O [asparagine],5.41,5.41
N[C@@H](Cc1c[nH]cn1)C(=O)O [histidine],7.59,7.59
N[C@@H](CC(=O)O)C(=O)O [aspartic acid],2.77,2.77
N[C@@H](Cc1ccccc1)C(=O)O [phenylalanine],5.48,5.48
N[C@@H](Cc1ccc(O)cc1)C(=O)O [tyrosine],5.66,5.66
N[C@@H](CS)C(=O)O [cysteine],5.05,5.05
N[C@@H](CCC(=O)O)C(=O)O [glutamic acid],3.22,3.22
N=C(N)NCCC[C@H](N)C(=O)O [arginine],10.76,10.76
NCC(=O)O [glycine],5.97,5.97
N[C@@H](CO)C(=O)O [serine],5.68,5.68
CC(C)[C@H](N)C(=O)O [valine],5.96,5.96
C[C@@H](O)[C@H](N)C(=O)O [threonine],6.16,6.16
C[C@H](N)C(=O)O [alanine],6.00,6.00
CSCC[C@H](N)C(=O)O [methionine],5.74,5.74
O=C(O)[C@@H]1CCCN1 [proline],6.30,6.30
NCCCC[C@H](N)C(=O)O [lysine],9.75,9.75
